Measurements taken from patent US8371376B2, “Method for pre-treatment of subterranean sites adjacent to water injection wells” (E. I. du Pont de Nemours and Company, priority 2010, dated 2013).

Assay: Titration of sand/amine/brine mixture with 1N HCl, amine concentration by GC
Format: physicochemical
Details: initial pH 8.4, before HCl addition; 380 ppm expected if all dissolved
Description: Helium was used as the carrier gas.
38 milligrams (mg) of N N-Dimethyl-1-Dodecanamine (hereafter referred to as “the amine”) was added to 10.210 gr of Pentane. This solution was added to 10.1845 gr of specific sand layers (Oa and Ob) obtained from the Schrader Bluff formation of the Milne Point Unit of the Alaskan North slope. The oil content of the sand was first removed using a mixture of methanol and toluene (50/50, volume/volume) as solvent washes. The solvent mixture was subsequently evaporated off the core sand to produce clean, dry, flowable core sand. This sand was mixed with the amine and pentane solution to produce a slurry. This slurry was thoroughly mixed and the pentane was evaporated off leaving the amine on the sand (hereafter referred to as sand/amine mixture). 100 ml of brine #2 (Table 3) was added to the sand/amine mixture to create the sand/amine/brine mixture. […] The fact that the amine was not detected underlined its strong binding to the sand particles. […] The data underlines the remarkable efficiency of an acid at ionizing and removing the amine from the sand.

Which “amine conc. in sand/amine/brine mixture” value does the source give for `CCCCCCCCCCCCN(C)C` [N-N-dimethyl-1-dodeanamine, N N-Dimethyl-1-Dodecanamine] here?
The value was < 1 ppm.
